Test system: His-tagged proteins
Assay: surface plasmon resonance, immobilized chelator, protein loss during wash
Assay type: binding
Details: immobilized for surface plasmon resonance measurements
Excerpt: The affinity of the soluble chelator of the present invention for His-tagged proteins is much higher, compared to the NTA analoga. […] So, a stable, non-reversible protein binding via affinity bonds between metal and poly-His is feasible.

SMILES: O=C(O)CN(CC(=O)O)CC(=O)O [NTA, nitrilotriacetic acid]
- protein loss from the chip: protein leaching during wash
